Measured values as given in patent US20140045823A1 (Neurocrine Biosciences, Inc., priority 2012, published 2014).

What follows are molecules tested against T1, human GPR119 (Homo sapiens, UniProt Q8TDV5) (assay: AlphaScreen cAMP assay in MIN6 cells stably transfected with human GPR119). Details: Min-6/hGPR119 cells, 45 min at room temperature.
T1 construct: expression vector for human GPR119 cDNA (Acc. No. NP_848566); expressed in transfected cells; Min-6/hGPR119
T1 sequence (Q8TDV5 1-335): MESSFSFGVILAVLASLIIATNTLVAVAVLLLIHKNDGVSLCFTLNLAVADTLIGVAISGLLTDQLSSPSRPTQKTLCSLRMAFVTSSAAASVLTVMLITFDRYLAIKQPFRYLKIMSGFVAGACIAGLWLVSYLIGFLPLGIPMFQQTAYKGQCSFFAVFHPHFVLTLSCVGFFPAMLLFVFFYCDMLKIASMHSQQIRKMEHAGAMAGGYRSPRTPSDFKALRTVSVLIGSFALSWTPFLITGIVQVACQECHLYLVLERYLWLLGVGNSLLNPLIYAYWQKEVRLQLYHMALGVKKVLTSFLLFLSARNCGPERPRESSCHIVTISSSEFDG
Type: cell-based
Procedure: The compounds of formula I according to the invention modulate the activity of the G-protein-coupled receptor GPR119. The effect of the compounds on the activation of GPR119 and on the stimulation of intracellular cAMP concentration is determined using the AlphaScreen cAMP Assay Kit (Cat. No. #6760625R) made by PerkinElmer.
MIN6 cells [Miyazaki J et al. Endocrinology. 1990 July; 127(1):126-32] are stably transfected with an expression vector for human GPR119 cDNA (Acc. No. NP_848566). Min-6/hGPR119 cells are cultured in DMEM, 10% FBS, 50 μM β-mercaptoethanol, 0.3 mg/mL Geniticin, 2 mM GlutaMAX at 37° C. 5% CO2. For the assay, the cells are seeded in Optiplates (white, 384-well, 160 W—barcoded, TC, sterile with lid, Cat. No. #6007688 (Perkin Elmer); 10000 cells/well; 50 μl). The plates covered with lids are then incubated for 24 hours at 37° C./5% CO2. After the medium is aspirated from the wells completely, 10 μl of the test compound are added, the compounds are diluted using stimulating buffer (140 mM NaCl, 3.6 mM KCl, 0.5 mM NaH2PO4, 0.5 mM MgSO4, 1.5 mM CaCl2, 10 mM Hepes, 5 mM NaHCO3; pH 7.4. 0.5 mM IBMX and 0.1% BSA, the final DMSO concentration is 1%). After 45 minutes incubation at room temperature (approx. 20° C.), the cAMP concentrations are determined using the AlphaScreen cAMP Assay Kit (Cat. No. #6760625R from PerkinElmer).

SMILES | EC50 [nM]
CC(C)(C)OC(=O)N1CCC(N(C(=O)c2ccc(-c3cnco3)cn2)C2CC2)CC1 [Example 8, 4-[Cyclopropyl-(5-oxazol-5-yl-pyridine-2-carbonyl)-amino]-piperidine-1-carboxylic acid tert-butyl ester] | 120
Cn1cc(-c2ccc(C(=O)N(C3CC3)C3CCN(C(=O)OC(C)(C)C)CC3)cn2)ccc1=O [Example 4, 4-[Cyclopropyl-(1′-methyl-6′-oxo-1′,6′-dihydro-[2,3′]bipyridinyl-5-carbonyl)-amino]-piperidine-1-carboxylic acid tert-butyl ester] | 1460
COC1CN(C(=O)c2ccc(-c3ncc(C(=O)N(C4CC4)C4CCN(C(=O)OC(C)(C)C)CC4)cn3)cc2F)C1 [Example 137, 4-(Cyclopropyl-{2-[3-fluoro-4-(3-methoxy-azetidine-1-carbonyl)-phenyl]-pyrimidine-5-carbonyl}-amino)-piperidine-1-carboxylic acid tert-butyl ester] | 264
CC(C)(C)OC(=O)N1CCC(N(C(=O)c2cnc(-c3ccc(C#N)c(F)c3)nc2)C2CC2)CC1 [Example 90, 4-{[2-(4-Cyano-3-fluoro-phenyl)-pyrimidine-5-carbonyl]-cyclopropyl-amino}-piperidine-1-carboxylic acid tert-butyl ester] | 8
CC(C)(C)OC(=O)N1CCC(N(C(=O)c2cnc(-c3ccncc3)nc2)C2CC2)CC1 [Example 63, 4-[Cyclopropyl-(2-pyridin-4-yl-pyrimidine-5-carbonyl)-amino]-piperidine-1-carboxylic acid tert-butyl ester] | 42
CC(C)(C)OC(=O)N1CCC(N(C(=O)c2cc(-c3ccc([N+](=O)[O-])cc3)[nH]n2)C2CC2)CC1 [Example 65, 4-{Cyclopropyl-[5-(4-nitro-phenyl)-1H-pyrazole-3-carbonyl]-amino}-piperidine-1-carboxylic acid tert-butyl ester] | 1170
CN(CC#N)C(=O)Cc1ccc(-c2ncc(C(=O)N(C3CC3)C3CCN(C(=O)OC(C)(C)C)CC3)cn2)cc1 [Example 218, 4-[(2-{4-[(Cyanomethyl-methyl-carbamoyl)-methyl]-phenyl}-pyrimidine-5-carbonyl)-cyclopropyl-amino]-piperidine-1-carboxylic acid tert-butyl ester] | 216
Cc1cnc(CNC(=O)c2ccc(-c3ncc(C(=O)N(C4CC4)C4CCN(C(=O)OC(C)(C)C)CC4)cn3)cc2)s1 [Example 246, 4-[Cyclopropyl-(2-{4-[(5-methyl-thiazol-2-ylmethyl)-carbamoyl]-phenyl}-pyrimidine-5-carbonyl)-amino]-piperidine-1-carboxylic acid tert-butyl ester] | 169
CC(C)(C)OC(=O)N1CCC(N(C(=O)c2cnc(-c3ccc(C(=O)NC4CCC(O)CC4)cc3)nc2)C2CC2)CC1 (stereo not drawn) [Example 171, 4-(Cyclopropyl-{2-[4-(4-hydroxy-cyclohexylcarbamoyl)-phenyl]-pyrimidine-5-carbonyl}-amino)-piperidine-1-carboxylic acid tert-butyl ester] | 383
CC(C)(C)OC(=O)N1CCC(N(C(=O)c2cc(-c3ccc(C#N)c(F)c3)on2)C2CC2)CC1 [Example 40, 4-{[5-(4-Cyano-3-fluoro-phenyl)-isoxazole-3-carbonyl]-cyclopropyl-amino}-piperidine-1-carboxylic acid tert-butyl ester] | 7
COCC(C)NC(=O)c1ccc(-c2ncc(C(=O)N(C3CC3)C3CCN(C(=O)OC(C)(C)C)CC3)cn2)cc1F (stereo not drawn) [Example 130, 4-(Cyclopropyl-{2-[3-fluoro-4-(2-methoxy-1-methyl-ethylcarbamoyl)-phenyl]-pyrimidine-5-carbonyl}-amino)-piperidine-1-carboxylic acid tert-butyl ester] | 193
Cc1nccn1-c1ncc(C(=O)N(C2CC2)C2CCN(C(=O)OC(C)(C)C)CC2)cn1 [Example 99, 4-{Cyclopropyl-[2-(2-methyl-imidazol-1-yl)-pyimidine-5-carbonyl]-amino}-piperidine-1-carboxylic acid tert-butyl ester] | 37
CC(C)(C)OC(=O)N1CCC(N(C(=O)c2cnc(-n3cccn3)nc2)C2CC2)CC1 [Example 56, 4-[Cyclopropyl-(2-pyrazol-1-yl-pyrimidine-5-carbonyl)-amino]-piperidine-1-carboxylic acid tert-butyl ester] | 2780
CN(CCC#N)C(=O)c1ccc(-c2ncc(C(=O)N(C3CC3)C3CCN(C(=O)OC(C)(C)C)CC3)cn2)cc1F [Example 234, 4-[(2-{4-[(2-Cyano-ethyl)-methyl-carbamoyl]-3-fluoro-phenyl}-pyrimidine-5-carbonyl)-cyclopropyl-amino]-piperidine-1-carboxylic acid tert-butyl ester] | 297
Cc1c(C(=O)N(C2CC2)C2CCN(C(=O)OC(C)(C)C)CC2)noc1-c1ccc(C#N)cc1F [Example 46, 4-{[5-(4-Cyano-2-fluoro-phenyl)-4-methyl-isoxazole-3-carbonyl]-cyclopropyl-amino}-piperidine-1-carboxylic acid tert-butyl ester] | 3
CN(CC(C)(C)O)C(=O)c1ccc(-c2ncc(C(=O)N(C3CC3)C3CCN(C(=O)OC(C)(C)C)CC3)cn2)cc1 [Example 223, 4-[Cyclopropyl-(2-{4-[(2-hydroxy-2-methyl-propyl)-methyl-carbamoyl]-phenyl}-pyrimidine-5-carbonyl)-amino]-piperidine-1-carboxylic acid tert-butyl ester] | 634
COCc1sc(NC(=O)c2ccc(-c3ncc(C(=O)N(C4CC4)C4CCN(C(=O)OC(C)(C)C)CC4)cn3)cc2)nc1C [Example 185, 4-(Cyclopropyl-{2-[4-(5-methoxymethyl-4-methyl-thiazol-2-ylcarbamoyl)-phenyl]-pyrimidine-5-carbonyl}-amino)-piperidine-1-carboxylic acid tert-butyl ester] | 390
COC[C@H]1CCCN1C(=O)c1ccc(-c2ncc(C(=O)N(C3CC3)C3CCN(C(=O)OC(C)(C)C)CC3)cn2)c(F)c1 [Example 134, 4-(Cyclopropyl-{2-[2-fluoro-4-(2-methoxymethyl-pyrrolidine-1-carbonyl)-phenyl]-pyrimidine-5-carbonyl}-amino)-piperidine-1-carboxylic acid tert-butyl ester] | 561
CC(C)(C)OC(=O)N1CCC(N(C(=O)c2noc(-c3ccc(C#N)c(F)c3)n2)C2CC2)CC1 [Example 20, 4-{[5-(4-Cyano-3-fluoro-phenyl)-[1,2,4]oxadiazole-3-carbonyl]-cyclopropyl-amino}-piperidine-1-carboxylic acid tert-butyl ester] | 7
CC(C)(C)OC(=O)N1CCC(N(C(=O)c2cnc(-c3ccc(C(=O)N4CCCOCC4)c(F)c3)nc2)C2CC2)CC1 [Example 117, 4-(Cyclopropyl-{2-[3-fluoro-4-([1,4]oxazepane-4-carbonyl)-phenyl]-pyrimidine-5-carbonyl}-amino)-piperidine-1-carboxylic acid tert-butyl ester] | 275
Cc1cc(C(=O)N(C2CC2)C2CCN(C(=O)OC(C)(C)C)CC2)cnc1-c1cnco1 [Example 10, 4-[Cyclopropyl-(5-methyl-6-oxazol-5-yl-pyridine-3-carbonyl)-amino]-piperidine-1-carboxylic acid tert-butyl ester] | 748
COc1ccccc1-c1ncc(C(=O)N(C2CC2)C2CCN(C(=O)OC(C)(C)C)CC2)cn1 [Example 73, 4-{Cyclopropyl-[2-(2-methoxy-phenyl)-pyrimidine-5-carbonyl]-amino}-piperidine-1-carboxylic acid tert-butyl ester] | 1670
Cn1ccc(CNC(=O)c2ccc(-c3ncc(C(=O)N(C4CC4)C4CCN(C(=O)OC(C)(C)C)CC4)cn3)cc2F)n1 [Example 136, 4-[Cyclopropyl-(2-{3-fluoro-4-[(1-methyl-1H-pyrazol-3-ylmethyl)-carbamoyl]-phenyl}-pyrimidine-5-carbonyl)-amino]-piperidine-1-carboxylic acid tert-butyl ester] | 194
CC(C)(C)OC(=O)N1CCC(N(C(=O)c2cnc(-c3ccc(C(=O)N4CC(F)(F)C4)cc3F)nc2)C2CC2)CC1 [Example 147, 4-(Cyclopropyl-{2-[4-(3,3-difluoro-azetidine-1-carbonyl)-2-fluoro-phenyl]-pyrimidine-5-carbonyl}-amino)-piperidine-1-carboxylic acid tert-butyl ester] | 159
